Entries after “also recorded” stand apart in the source; their conditions may differ. Bridges are numbered along the chain shown (N, C = ends).
Tests used:
[1] = test system: S. aureus and E. coli ML35; assay: Antimicrobial activities in physiological salts and serum; type: cell-based; conditions: NaCl, CaCl2, MgCl2; 10% human serum
Procedure: (§1) The microbicidal activities of various theta defensin peptides were determined by incubating 2×10^6 CFU/ml with peptides (0-100 μg/ml) in 50 μl of low salt diluents: 10 mM PIPES buffer containing 5 mM glucose, pH 7.4, 10 mM Tris-HCl, pH 7.4, or 10 mM sodium phosphate, pH 7.4, or the same diluents supplemented with 25 to 154 mM NaCl. After 2 h incubation at 37° C., the cell suspensions were diluted 1:50 with 10 mM sodium phosphate buffer, pH 7.4, and exponentially spread with an Autoplate 400 (Spiral Biotech, MD) onto trypticase soy agar (bacteria) or Sabouraud dextrose agar (fungi). After incubation at 37° C. for 18-48 h, colonies were counted and cell survival was expressed as CFU/ml.
(§2) Staphylocidal activities of theta defensins and protegrin were assayed in various buffers and salt concentrations. Log-phase bacteria were incubated for 2 h at 37° C. with increasing concentrations of the peptides (FIG. 9). Cells were incubated with increasing concentrations of RTD-1 (filled circles), RTD-2 (filled triangles), RTD-3 (filled squares), and PG-1 (filled diamonds) in 10 mM PIPES (FIG. 9A), 10 mM Tris-Cl (FIG. 9B), or 10 mM sodium phosphate (FIG. 9C), at pH 7.4, containing 154 mM NaCl.
The bactericidal activities of theta defensins against E. coli in various physiological salt concentrations were also tested. […] Killing of E. coli ML35 was measured by incubating increasing concentrations of RTD-1 (filled circles), RTD-2 (filled triangles), RTD-3 (filled squares), and PG-1 (filled diamonds) with log-phase E. coli ML35 in 10 mM PIPES, pH 7.4, with CaCl2 (1.2 mM) (FIG. 10A), MgCl2 (0.8 mM) (FIG. 10B), or in control incubations where the divalent salts were omitted (FIG. 10C).
The activities of theta defensins in the presence of serum were also analyzed. […] Dose-dependent bactericidal activities of RTD-1 (filled circles), RTD-2 (filled triangles), RTD-3 (filled squares), and PG-1 (filled diamonds) against bacteria were determined in 10 mM PIPES, pH 7.4, containing 10% normal (for S. aureus) or heat-inactivated (for E. coli) human serum.

[2] = test system: Escherichia coli ML35, Staphylococcus aureus 502A, Candida albicans, Cryptococcus neoformans; assay: Microbicidal and agar diffusion assays in low salt diluents; type: cell-based, bacteria and fungi; conditions: low salt conditions, absence of physiologic salt
Procedure: The antimicrobial activities of various theta defensin compounds were measured using a diffusion assay against bacteria (Staphylococcus aureus 502a and Escherichia coli ML35) and fungi (Candida albicans 16820 and Cryptococcus neoformans 271A). The antimicrobial activities were determined in an agar diffusion assay as described previously (Osapay et al., J. Biol. Chem. 275:12017-12022 (2000)). Briefly, 10-μl wells were bored in a 9-cm^2 plate of agarose, buffered with 10 mM 1,4-piperazine-bis(ethanesulfonic acid) (PIPES), pH 7.4, containing 5 mM glucose, and seeded with 1×10^6 mid-log phase cells. Five-μl aliquots of each peptide, dissolved in 0.01% acetic acid (HOAc) at 10-300 μg/ml, were added to each well. After incubation at 37° C. for 2 h, the seeded agar was overlaid with molten agarose containing 6% trypticase soy broth (for bacteria) or Sabouraud dextrose broth (for fungi). Plates were incubated at 37° C. for 18-24 h, and antimicrobial activity was determined by measuring the diameter of clearing around each well.
as §1
FIGS. 2-4 show the results of microbicidal assays performed with various theta defensins and protegrin. Cells were incubated for 2 hours at 37° C. in 10 mM PIPES, pH 7.4, and 5 mM glucose, as described above.
FIGS. 5-8 show antimicrobial activities of various theta defensins as measured using the diffusion assay. […]

[3] = test system: Human PBMCs; assay: TNFα release from LPS-stimulated PBMCs; type: cell-based; conditions: LPS 10 μg/ml, RTD-1 0.1-10 μg/ml, supernatants after 3 days
Procedure: Human PBMCs were prepared by the dextran sedimentation method and resuspended in Iscove's Modified Dulbecco's Medium containing 10% fetal bovine serum. […] Under conditions shown in A-C, aliquots containing 0.5−1×10^6 PBMCs were incubated with 10 μg/ml lipopolysaccharide (LPS) for 2 hours at 37° C., 5% CO2, then treated with RTD-1 (A: 10 μg/ml, B: 1 μg/ml, C, 0.1 μg/ml). Under conditions shown in D-E, a mixture of LPS (10 μg/ml) and RTD-1 (D: 10 μg/ml, E: 1 μg/ml, F: 0.1 μg/ml) were incubated for 2 hours at 37° C. then added to PBMC. Under conditions shown in G-L, control incubations were performed in which PBMCs were incubated with either 10 μg/ml LPS (G), 1 μg/ml phorbol 12-myristate 13-acetate (PMA) (H), varying concentrations of RTD-1 (1:10 μg/ml, J:1 μg/ml, K:0.1 μg/ml), or in media (L). Supernatants from these incubations were harvested after 3 days and soluble TNF was measured using Human TNF ELISA Kit II (BD Biosciences, San Diego). Results were obtained from duplicate incubations.

[4] = test system: LPS-stimulated cells; conditions: cited from earlier work
[5] = test system: various theta defensin peptides
[6] = test system: Staphylococcus aureus; assay: Staphylocidal activity in buffers containing physiologic NaCl; type: cell-based; conditions: 154 mM NaCl, pH 7.4, 2 h at 37° C.
Procedure: as §1, §2

[7] = test system: primary R5 strain of HIV-1; assay: Anti-HIV activity in PHA-stimulated PBMCs (p24 ELISA); type: cell-based; conditions: day 7 of infection
Procedure: Phytohaemagglutinin (PHA)-stimulated peripheral blood mononuclear cells (PBMCs), pre-incubated for 3 hours with serial dilutions of defensins, were mixed with 1000 TCID50 (50% infectivity of susceptible cells in tissue culture) of a primary R5 strain of HIV-1. Two hours later, the cells were washed, and fresh medium containing defensin and 20 U/ml of IL-2 was added. Five days after infection, 50% of the medium was removed and replaced with fresh medium containing defensin and IL-2. On day 7 of infection, the levels of HIV protein p24 in supernatant fluid were measured by ELISA. […] The active β-defensin was human β-defensin-3.

Gly-Phe-Cys-Arg-Cys-Leu-Cys-Arg-Arg-Gly-Val-Cys-Arg-Cys-Ile-Cys-Thr-Arg (cyclo(GFCRCLCRRGVCRCICTR); disulfide 7-12, 5-14, 3-16) [RTD-1, Rhesus theta defensin, macrocyclic 18-amino acid antimicrobial peptide, heterodimer of RTD1a and RTD1b nonapeptides]
activity in the presence of physiological salts and serum [1]: active | antimicrobial activity in vitro [2]: nearly indistinguishable | extracellular release of TNFα [3]: modulates extracellular release of TNF-a | levels of pro-inflammatory cytokines (TNF-α, IL-1β) [4]: Reduction

Purified β-galactosidase
β-Galactosidase activity measured as the rate of o-nitrophenyl-beta-D-galactopyranoside (ONPG) hydrolysis, compared to that obtained in the absence of peptide [5]: various theta defensins inhibited β-galactosidase enzymatic activity

RTD-2: naturally occurring theta defensin, homodimer of nine-residue sequences (SEQ ID NO:4, FIG. 1) (cyclo(GFCRCICTRGFCRCICTR); not fully specified (bridges); also: homodimer of nine-residue sequences, cyclic; listed as Macaca mulatta)
antimicrobial activity in the presence of salt compared to RTD-1 [6]: more potent antimicrobial activity; also recorded: higher antimicrobial activity than RTD-1 | activity in the presence of physiological salts and serum [1]: active | antimicrobial activity in vitro [2]: nearly indistinguishable

RTD-3: naturally occurring theta defensin, homodimer of nine-residue sequences (SEQ ID NO:6, FIG. 1) (cyclo(GVCRCLCRRGVCRCLCRR); not fully specified (bridges); also: homodimer of nine-residue sequences, cyclic; listed as Macaca mulatta)
antimicrobial activity in the presence of salt compared to RTD-1 [6]: more potent antimicrobial activity; also recorded: higher antimicrobial activity than RTD-1 | activity in the presence of physiological salts and serum [1]: active | antimicrobial activity in vitro [2]: nearly indistinguishable

human β-defensin-3: human β-defensin-3, the active β-defensin in the anti-HIV assay (GIINTLQKYYCRVRGGRCAVLSCLPKEEQIGKCSTRGRKCCRRKK; Beta-defensin 103; UniProt P81534 23-67, looked up)
anti-HIV activity (HIV protein p24 in supernatant) [7]: active

Reference: patent publication US20080255052A1, “Immunologic regulation by theta defensins” (priority 2004, published 2008)
